# pIC50: −log10 of the molar value.
# How the values were obtained:
# [1] = molecular target: T1, CDK1/CycB (Homo sapiens, UniProt P06493); assay: CDK1/CycB kinase assay (Assay 1); assay type: biochemical; settings: 0.5 μM ATP, histon IIIS substrate; read-out: CDK1/CycB (Assay 1) Concentration for 50% inhibition of enzyme activity, IC50
# T1 construct: purchased ProQinase GmbH, Freiburg; host or cells: baculovirus-infected insect cells (Sf9)
# Method: 10.1 Assay 1: CDK1/CycB Kinase Assay
# Recombinant CDK1 and CycB-GST fusion proteins, purified from baculovirus-infected insect cells (Sf9), were purchased from ProQinase GmbH, Freiburg. The histon IIIS used as kinase substrate is commercially available from the company Sigma.
# CDK1/CycB (200 ng/measuring point) was incubated for 10 min at 22° C. in the presence of various concentrations of test substances (0 μM, and within the range 0.01-100 μM) in assay buffer [50 mM Tris/HCl pH8.0, 10 mM MgCl2, 0.1 mM Na ortho-vanadate, 1.0 mM dithiothreitol, 0.5 μM adenosine triphosphate (ATP), 10 μg/measuring point histon IIIS, 0.2 μCi/measuring point ^33P-gamma ATP, 0.05% NP40, 1.25% dimethylsulfoxide]. The reaction was stopped by adding EDTA solution (250 mM, pH8.0, 15 μl/measuring point).
# (§1) From each reaction mixture, 15 μl was applied to P30 filter strips (from Wallac), and unincorporated ^33P-ATP was removed by washing the filter strips three times, for 10 min each time, in 0.5% phosphoric acid. After drying the filter strips for 1 hour at 70° C., the filter strips were covered with scintillator strips (MeltiLex™ A, from Wallac) and stoved for 1 hour at 90° C. The amount of incorporated ^33P (substrate phosphorylation) was determined by scintillation measurement in a gamma-radiation measuring instrument (Wallac). The measured data were standardized to 0% inhibition (enzyme reaction without inhibitor) and 100% inhibition (all assay components except enzyme). The IC50 values were determined by means of a 4-parameter fit using the company's own software.
# [2] = molecular target: T2, VEGF receptor tyrosine kinase-2 (Homo sapiens, UniProt P35968); assay: VEGF receptor-2 kinase assay (Assay 3); assay type: biochemical; settings: 8 μM ATP, poly-(Glu4Tyr) substrate; read-out: VEGF-R2 (Assay 3) Concentration for 50% inhibition of enzyme activity, IC50
# T2 construct: GST; made in house; host or cells: baculovirus-infected insect cells (Sf9)
# T2 sequence (P35968 20-1356): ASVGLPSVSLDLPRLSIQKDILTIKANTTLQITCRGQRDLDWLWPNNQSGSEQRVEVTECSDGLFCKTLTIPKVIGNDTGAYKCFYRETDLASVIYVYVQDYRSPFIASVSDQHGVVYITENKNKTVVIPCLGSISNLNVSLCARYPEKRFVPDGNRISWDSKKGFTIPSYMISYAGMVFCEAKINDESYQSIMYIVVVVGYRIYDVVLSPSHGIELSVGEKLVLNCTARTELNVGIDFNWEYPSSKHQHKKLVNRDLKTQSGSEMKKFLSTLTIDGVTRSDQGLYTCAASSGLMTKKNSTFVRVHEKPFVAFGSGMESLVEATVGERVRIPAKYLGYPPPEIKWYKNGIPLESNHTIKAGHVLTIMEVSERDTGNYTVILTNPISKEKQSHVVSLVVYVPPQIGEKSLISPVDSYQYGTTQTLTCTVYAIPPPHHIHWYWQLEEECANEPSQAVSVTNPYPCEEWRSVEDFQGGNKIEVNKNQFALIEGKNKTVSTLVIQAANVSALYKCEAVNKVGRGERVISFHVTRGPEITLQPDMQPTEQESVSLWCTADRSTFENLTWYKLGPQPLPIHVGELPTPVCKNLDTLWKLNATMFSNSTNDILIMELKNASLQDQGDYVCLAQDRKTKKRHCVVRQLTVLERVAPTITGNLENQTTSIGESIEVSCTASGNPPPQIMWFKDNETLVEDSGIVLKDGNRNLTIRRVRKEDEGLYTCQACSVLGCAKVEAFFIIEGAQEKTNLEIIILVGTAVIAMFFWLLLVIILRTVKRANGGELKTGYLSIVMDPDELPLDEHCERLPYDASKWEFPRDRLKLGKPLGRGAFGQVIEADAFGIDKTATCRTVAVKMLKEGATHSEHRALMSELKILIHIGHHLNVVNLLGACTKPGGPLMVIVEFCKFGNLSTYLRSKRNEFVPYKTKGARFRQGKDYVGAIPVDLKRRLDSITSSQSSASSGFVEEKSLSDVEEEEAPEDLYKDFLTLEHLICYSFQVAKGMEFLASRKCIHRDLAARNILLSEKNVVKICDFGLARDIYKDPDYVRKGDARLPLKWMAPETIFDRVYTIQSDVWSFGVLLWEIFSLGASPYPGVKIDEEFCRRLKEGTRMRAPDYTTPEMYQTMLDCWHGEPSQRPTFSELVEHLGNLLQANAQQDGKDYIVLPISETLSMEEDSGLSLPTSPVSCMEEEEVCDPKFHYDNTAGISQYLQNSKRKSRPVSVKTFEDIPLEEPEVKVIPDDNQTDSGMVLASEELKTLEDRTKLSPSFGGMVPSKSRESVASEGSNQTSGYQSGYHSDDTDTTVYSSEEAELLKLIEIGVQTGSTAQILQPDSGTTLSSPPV
# Method: 10.3 Assay 3: VEGF Receptor-2 Kinase Assay
# Recombinant VEGF receptor tyrosine kinase-2 was purified as GST fusion protein from baculovirus-infected insect cells (Sf9). Poly-(Glu4Tyr), used as kinase substrate, was purchased from the company Sigma.
# VEGF receptor tyrosine kinase (90 ng/measuring point) was incubated for 10 min at 22° C. in the presence of various concentrations of test substances (0 μM, and within the range 0.001-30 μM) in 30 μl assay buffer [40 mM Tris/HCl pH5.5, 10 mM MgCl2, 1 mM MnCl2, 3 μM Na ortho-vanadate, 1.0 mM dithiothreitol, 8 μM adenosine triphosphate (ATP), 0.96 μg/measuring point poly-(Glu4Tyr), 0.2 μCi/measuring point ^33P-gamma ATP, 1.4% dimethylsulfoxide]. The reaction was stopped by adding EDTA solution (250 mM, pH8.0, 15 μl/measuring point).
# as §1
# T1 sequence (P06493 whole entry): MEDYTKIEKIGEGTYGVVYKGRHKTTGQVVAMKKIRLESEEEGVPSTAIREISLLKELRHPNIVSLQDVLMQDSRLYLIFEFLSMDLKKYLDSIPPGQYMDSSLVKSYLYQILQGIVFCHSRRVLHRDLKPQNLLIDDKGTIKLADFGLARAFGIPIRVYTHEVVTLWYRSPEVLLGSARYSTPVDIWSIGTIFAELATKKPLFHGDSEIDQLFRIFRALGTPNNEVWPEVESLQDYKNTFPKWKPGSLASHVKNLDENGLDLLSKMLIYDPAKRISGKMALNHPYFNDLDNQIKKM
# T1 sequence (P14635 whole entry partner): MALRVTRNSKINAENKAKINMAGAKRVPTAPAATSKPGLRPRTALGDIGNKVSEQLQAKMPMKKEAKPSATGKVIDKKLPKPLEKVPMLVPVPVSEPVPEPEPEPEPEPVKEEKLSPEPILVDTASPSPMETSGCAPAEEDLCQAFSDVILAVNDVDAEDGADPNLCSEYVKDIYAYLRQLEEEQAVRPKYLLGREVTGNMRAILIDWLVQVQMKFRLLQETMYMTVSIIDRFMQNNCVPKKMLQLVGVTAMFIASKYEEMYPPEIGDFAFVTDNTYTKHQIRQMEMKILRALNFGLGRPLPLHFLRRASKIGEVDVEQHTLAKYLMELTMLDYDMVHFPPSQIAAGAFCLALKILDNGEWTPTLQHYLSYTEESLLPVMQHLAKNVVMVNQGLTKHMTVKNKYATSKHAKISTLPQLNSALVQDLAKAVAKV
Structure (SMILES),pIC50 [1],pIC50 [2]
"C[C@@H](O)[C@@H](C)Oc1nc(Nc2ccc(S(=N)(=O)C3CC3)cc2)ncc1Br (single isomer, unassigned) [Example V14]",8.40,7.04
CCS(=N)(=O)c1ccc(Nc2ncc(Br)c(N[C@H](C)[C@@H](C)O)n2)cc1 (stereo partly shown) [Example V12],8.52,7.49

# — patent US8735412B2, “Sulfoximine-substituted anilinopyrimidine derivatives as CDK inhibitors, the production thereof, and use as medicine” (Bayer Intellectual Property GmbH, priority 2008, dated 2014)
